Experimental data taken from ChEMBL document CHEMBL1201862, “PubChem BioAssay data set” (2004).
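48-hour exposure; five concentrations; linearly interpolated endpoints. Abbreviation: GI50, concentration required for 50% inhibition of growth.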 The source made the active and inactive calls. No stated cut-off is given here; in the data, active = GI50 up to about 1.1 µM and inactive = higher.

Key:
Assay in all cases: growth of human tumour cells (NCI), 48 h
NCI-H460 = test system: NCI-H460
LOX IMVI = test system: LOX IMVI
SK-OV-3 = test system: SK-OV-3
K562 = test system: K562
SW-620 = test system: SW-620
SK-MEL-2 = test system: SK-MEL-2
HOP-92 = test system: HOP-92
TK-10 = test system: TK-10
A498 = test system: A498
UO-31 = test system: UO-31
RPMI-8226 = test system: RPMI-8226
MOLT-4 = test system: MOLT-4
OVCAR-8 = test system: OVCAR-8
HT-29 = test system: HT-29
786-0 = test system: 786-0
ACHN = test system: ACHN

Measured: GI50

CC1=NN(C(=O)c2ccc(Cl)cc2)C(=O)/C1=C/c1ccco1
inactive: NCI-H460 > 100 µM | LOX IMVI > 100 µM | SK-OV-3 > 100 µM | K562 > 100 µM | SW-620 > 100 µM | SK-MEL-2 > 100 µM | HOP-92 > 100 µM | TK-10 > 100 µM | A498 > 100 µM | UO-31 > 100 µM | RPMI-8226 > 100 µM | MOLT-4 > 100 µM | OVCAR-8 > 100 µM | HT-29 > 100 µM | 786-0 > 100 µM | ACHN > 100 µM

CN1CCS(=O)(=O)NC(Cc2ccccc2)C(=O)N2CCCC2C1=O (stereo not given)
inactive: LOX IMVI > 100 µM | SK-OV-3 > 100 µM | K562 > 100 µM | SW-620 > 100 µM | SK-MEL-2 > 100 µM | TK-10 > 100 µM | A498 > 100 µM | UO-31 > 100 µM | RPMI-8226 > 100 µM | MOLT-4 > 100 µM | OVCAR-8 > 100 µM | HT-29 > 100 µM | 786-0 > 100 µM | ACHN > 100 µM

O=C(Nc1ccc(Cl)c(Cl)c1)C(=O)C(C(=O)c1ccccc1-c1ccccc1)C1OC(=O)c2ccccc21 (stereo not given)
inactive: NCI-H460 19.9 µM | LOX IMVI 13.5 µM | SK-OV-3 28.5 µM | K562 21.5 µM | SW-620 19 µM | SK-MEL-2 11.4 µM | HOP-92 12.9 µM | TK-10 23.6 µM | A498 22.9 µM | UO-31 15.6 µM | RPMI-8226 8.24 µM | MOLT-4 14 µM | OVCAR-8 17.4 µM | HT-29 29.8 µM | 786-0 11.2 µM | ACHN 31.3 µM

CCN(CC)c1ccc(C(=O)c2ccccc2C(=O)O)c(O)c1
inactive: NCI-H460 > 100 µM | LOX IMVI > 100 µM | SK-OV-3 > 100 µM | K562 > 100 µM | SW-620 > 100 µM | SK-MEL-2 > 100 µM | HOP-92 > 100 µM | TK-10 > 100 µM | A498 > 100 µM | UO-31 > 100 µM | RPMI-8226 > 100 µM | MOLT-4 > 100 µM | OVCAR-8 > 100 µM | HT-29 > 100 µM | 786-0 > 100 µM | ACHN > 100 µM

COc1cc(CCc2ccc(OC(C)=O)cc2)cc(OC)c1OC
inactive: NCI-H460 > 100 µM | LOX IMVI 92 µM | K562 63.8 µM | SW-620 > 100 µM | HOP-92 49 µM | TK-10 > 100 µM | A498 > 100 µM | UO-31 73.3 µM | RPMI-8226 86.3 µM | MOLT-4 > 100 µM | OVCAR-8 > 100 µM | HT-29 > 100 µM | 786-0 > 100 µM | ACHN 79.4 µM

Cc1cc2c(c3c1c1ccccc1n3C)C(=O)c1ccccc1C2=O
inactive: NCI-H460 > 100 µM | LOX IMVI > 100 µM | K562 48 µM | SW-620 > 100 µM | SK-MEL-2 > 100 µM | HOP-92 16.9 µM | TK-10 > 100 µM | UO-31 > 100 µM | RPMI-8226 > 100 µM | MOLT-4 53.6 µM | OVCAR-8 > 100 µM | HT-29 > 100 µM | 786-0 > 100 µM | ACHN > 100 µM

O=C1[C@@H]2C(c3ccc(Cl)cc3Cl)=NO[C@@H]2C(=O)N1c1ccc(Cc2ccc(N3C(=O)[C@H]4C(c5ccc(Cl)cc5Cl)=NO[C@H]4C3=O)cc2)cc1
inactive: LOX IMVI 47.8 µM | SK-OV-3 > 100 µM | K562 29.3 µM | SW-620 71.8 µM | SK-MEL-2 > 100 µM | HOP-92 17.7 µM | TK-10 51.8 µM | A498 > 100 µM | UO-31 > 100 µM | RPMI-8226 21.2 µM | MOLT-4 17.3 µM | OVCAR-8 40.7 µM | HT-29 > 100 µM | 786-0 45.9 µM

O=C(OC(=O)n1ccc2ccccc21)n1ccc2ccccc21
inactive: NCI-H460 > 100 µM | LOX IMVI > 100 µM | SK-OV-3 > 100 µM | K562 > 100 µM | SW-620 > 100 µM | SK-MEL-2 > 100 µM | HOP-92 > 100 µM | A498 > 100 µM | UO-31 75.7 µM | RPMI-8226 > 100 µM | MOLT-4 > 100 µM | OVCAR-8 > 100 µM | HT-29 > 100 µM

CCCNCCCC(NC(C)=O)C(=O)NCc1ccccc1 (stereo not given)
inactive: NCI-H460 > 100 µM | LOX IMVI > 100 µM | SK-OV-3 > 100 µM | K562 > 100 µM | SW-620 > 100 µM | SK-MEL-2 > 100 µM | HOP-92 > 100 µM | TK-10 > 100 µM | A498 > 100 µM | UO-31 > 100 µM | RPMI-8226 > 100 µM | MOLT-4 > 100 µM | OVCAR-8 > 100 µM | HT-29 > 100 µM | 786-0 > 100 µM | ACHN > 100 µM

Cc1cc(NS(=O)(=O)c2ccc(NC(=O)c3cccc4c(Nc5ccc(S(=O)(=O)Nc6cc(C)on6)cc5)c5ccccc5nc34)cc2)no1
inactive: NCI-H460 > 100 µM | LOX IMVI 30.5 µM | SK-OV-3 > 100 µM | K562 36.6 µM | SW-620 > 100 µM | SK-MEL-2 30.3 µM | HOP-92 17.5 µM | A498 68.9 µM | UO-31 38.7 µM | RPMI-8226 64.4 µM | MOLT-4 34.1 µM | OVCAR-8 70.3 µM | HT-29 > 100 µM | 786-0 33 µM | ACHN > 100 µM

CCCCCCCCCCCCCS(=O)(=O)O
inactive: NCI-H460 > 100 µM | LOX IMVI > 100 µM | SW-620 > 100 µM | SK-MEL-2 > 100 µM | HOP-92 > 100 µM | TK-10 > 100 µM | A498 > 100 µM | UO-31 > 100 µM | OVCAR-8 > 100 µM | HT-29 > 100 µM | 786-0 > 100 µM | ACHN > 100 µM

C#Cc1cc(CN(CC(=O)OC(C)(C)C)CC(=O)OC(C)(C)C)nc(CN(CC(=O)OC(C)(C)C)CC(=O)OC(C)(C)C)c1
inactive: NCI-H460 7.23 µM | LOX IMVI 2.37 µM | SK-OV-3 6.55 µM | K562 4.6 µM | SW-620 4.81 µM | SK-MEL-2 2.28 µM | TK-10 17.3 µM | A498 17.8 µM | UO-31 3.71 µM | RPMI-8226 2.75 µM | MOLT-4 2.62 µM | OVCAR-8 5.24 µM | HT-29 4.4 µM | 786-0 7.06 µM | ACHN 4.84 µM

O=C(CC(=O)C1CCOC1=O)C(=O)Nc1ccc(Cl)cc1Cl (stereo not given)
inactive: NCI-H460 > 100 µM | LOX IMVI > 100 µM | SK-OV-3 > 100 µM | K562 > 100 µM | SW-620 > 100 µM | SK-MEL-2 > 100 µM | HOP-92 > 100 µM | TK-10 > 100 µM | A498 > 100 µM | UO-31 > 100 µM | RPMI-8226 > 100 µM | OVCAR-8 > 100 µM | HT-29 > 100 µM | 786-0 > 100 µM | ACHN > 100 µM
